Assay results reported in the supplement of paper PMC4862054.

Assays:
Conditions in all cases: incubation time: 72 h
MDA-MB-453 [1] = test: drug sensitivity score (DSS), CellTox Green (DSS (AUC-based score)); higher = stronger drug effect (viability inhibition or cytotoxicity); extreme values may be limits of the assay
Procedure, shortened: (§1)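 The drug sensitivity score reflects the area under a fitted dose-response curve. To obtain it, breast cancer cells in 20 µl suspension were seeded into 384-well plates containing compound at 5 concentrations, 10-fold apart over a compound-specific 10,000-fold range, and incubated 72 h. CellTox Green fluorescence (485/520 nm) was read first and CellTiter-Glo luminescence second, after 10 min at room temperature. Each plate was normalised to 0.1 % DMSO and a positive kill control.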

CAL-148 [2] = test: as above
Procedure, shortened: as §1

CAL-120 [3] = test: as above
Procedure, shortened: as §1

DU-4475 [4] = test: as above
Procedure, shortened: as §1

BT-549 [5] = test: as above
Procedure, shortened: as §1

BT-474 [6] = test: as above
Procedure, shortened: as §1

MDA-MB-231 [7] = test: as above
Procedure, shortened: as §1

CAL-85-1 [8] = test: as above
Procedure, shortened: as §1

HCC1143 [9] = test: as above
Procedure, shortened: as §1

MFM-223 [10] = test: as above
Procedure, shortened: as §1

MDA-MB-453 [11] = test: normalised viability (% of control), CellTiter-Blue; higher = more viable cells (about 100 = DMSO control)
Experimental: (§2)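 DSRT, CellTiter-Blue viability, 72 h incubation. Signal is normalised to DMSO and benzethonium chloride controls. Value is the normalised response at dose 3.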

CAL-148 [12] = test: as above
Experimental: as §2

CAL-120 [13] = test: as above
Experimental: as §2

HDQ-P1 = test: as above
Experimental: as §2

DU-4475 [14] = test: as above
Experimental: as §2

HCC1937 [15] = test: as above
Experimental: as §2

BT-549 [16] = test: as above
Experimental: as §2

HCC1599 = test: as above
Experimental: as §2

BT-474 [17] = test: as above
Experimental: as §2

Hs578T = test: as above
Experimental: as §2

MDA-MB-436 = test: as above
Experimental: as §2

MDA-MB-468 = test: as above
Experimental: as §2

MDA-MB-231 [18] = test: as above
Experimental: as §2

CAL-85-1 [19] = test: as above
Experimental: as §2

CAL-51 = test: as above
Experimental: as §2

SK-BR-3 = test: as above
Experimental: as §2

HCC1143 [20] = test: as above
Experimental: as §2

MFM-223 [21] = test: as above
Experimental: as §2

HCC1937 [22] = test: drug sensitivity score (DSS), CellTox Green (DSS (AUC-based score)); higher = stronger drug effect (viability inhibition or cytotoxicity); extreme values may be limits of the assay
Procedure, shortened: as §1

| SMILES | drug sensitivity score (MDA-MB-453 [1]) | drug sensitivity score (CAL-148 [2]) | drug sensitivity score (CAL-120 [3]) | drug sensitivity score (DU-4475 [4]) | drug sensitivity score (BT-549 [5]) | drug sensitivity score (BT-474 [6]) | drug sensitivity score (MDA-MB-231 [7]) | drug sensitivity score (CAL-85-1 [8]) | drug sensitivity score (HCC1143 [9]) | drug sensitivity score (MFM-223 [10]) | normalised viability (MDA-MB-453 [11]; 10 nM) [%] | normalised viability (CAL-148 [12]; 10 nM) [%] | normalised viability (CAL-120 [13]; 100 nM) [%] | normalised viability (HDQ-P1; 10 nM) [%] | normalised viability (DU-4475 [14]; 10 nM) [%] | normalised viability (HCC1937 [15]; 100 nM) [%] | normalised viability (BT-549 [16]; 100 nM) [%] | normalised viability (HCC1599; 100 nM) [%] | normalised viability (BT-474 [17]; 100 nM) [%] | normalised viability (Hs578T; 100 nM) [%] | other results |
| --- | --- | --- | --- | --- | --- | --- | --- | --- | --- | --- | --- | --- | --- | --- | --- | --- | --- | --- | --- | --- | --- |
| NC(=O)c1cccc2cn(-c3ccc([C@@H]4CCCNC4)cc3)nc12 [MK-4827] | 0 | 0 | 0 | 0 | 0 | 0 | 0 | 2.02 | 0 | 0 | 91.1 | 98.5 | 87.3 | 105 | 90.9 | 72.9 | 97.1 | 93.8 | 104 | 92.1 | normalised viability (MDA-MB-436; 100 nM): 95.1%; normalised viability (MDA-MB-468; 100 nM): 95%; normalised viability (MDA-MB-231 [18]; 100 nM): 97.5%; normalised viability (CAL-85-1 [19]; 10 nM): 101%; normalised viability (CAL-51; 10 nM): 110%; normalised viability (SK-BR-3; 100 nM): 78%; normalised viability (HCC1143 [20]; 100 nM): 87.2%; normalised viability (MFM-223 [21]; 100 nM): 90.6% |
| N[C@@H](Cc1ccc(N(CCCl)CCCl)cc1)C(=O)O [Melphalan] | 16.9 | 18.5 | 9.72 | 11.5 | 13.4 | 18.1 | 23.9 | 18.1 | 7.18 | 16.5 |  |  |  |  |  |  |  |  |  |  | drug sensitivity score (HCC1937 [22]): 15.4; normalised viability (MDA-MB-453 [11]; 0.99 nM): 108%; normalised viability (CAL-148 [12]; 0.99 nM): 92.4%; normalised viability (CAL-120 [13]; 9.9 nM): 73.6%; normalised viability (HDQ-P1; 0.99 nM): 97.6%; normalised viability (DU-4475 [14]; 0.99 nM): 105%; normalised viability (HCC1937 [15]; 9.9 nM): 102%; normalised viability (BT-549 [16]; 9.9 nM): 110%; normalised viability (HCC1599; 9.9 nM): 96.1%; normalised viability (BT-474 [17]; 9.9 nM): 99.3%; normalised viability (Hs578T; 9.9 nM): 75.8%; normalised viability (MDA-MB-436; 9.9 nM): 87.2%; normalised viability (MDA-MB-468; 9.9 nM): 108%; normalised viability (MDA-MB-231 [18]; 9.9 nM): 99.8%; normalised viability (CAL-85-1 [19]; 0.99 nM): 87.5%; normalised viability (CAL-51; 0.99 nM): 104%; normalised viability (SK-BR-3; 9.9 nM): 86.9%; normalised viability (HCC1143 [20]; 9.9 nM): 74.2%; normalised viability (MFM-223 [21]; 9.9 nM): 89.9% |
| O=C(c1cc(Cc2n[nH]c(=O)c3ccccc23)ccc1F)N1CCN(C(=O)C2CC2)CC1 [Olaparib] | 0 | 0 | 0 | 0 | 0 | 0 | 1.54 | 0 | 0 | 0 | 97.8 | 83.3 | 76.2 | 99.4 | 97.5 | 77.9 | 102 | 114 | 105 | 80.9 | drug sensitivity score (HCC1937 [22]): 0; normalised viability (MDA-MB-436; 100 nM): 107%; normalised viability (MDA-MB-468; 100 nM): 99.8%; normalised viability (MDA-MB-231 [18]; 100 nM): 76.5%; normalised viability (CAL-85-1 [19]; 10 nM): 88.1%; normalised viability (CAL-51; 10 nM): 101%; normalised viability (SK-BR-3; 100 nM): 81.2%; normalised viability (HCC1143 [20]; 100 nM): 88.2%; normalised viability (MFM-223 [21]; 100 nM): 103% |
